In US20130317069A1, “2,4-(SUBSTITUTED AROMATIC)-1,3-OXAZOLINE COMPOUNDS AS A SEED TREATMENT TO CONTROL PESTS” (Dow Agrosciences LLC, priority 2012, published 2013) one finds mortality data, which are given here for 16 molecules.

The subject of assay [1] is Spodoptera exigua (beet armyworm). Kind of assay: Insecticidal activity on beet armyworm, treated lepidopteran diet. The assay is classed as in vivo. As to conditions: 120 h, Rate 400 PPM, 250 μL test solution on diet surface, second-instar larvae, 5 days at 25° C., five insects per treatment. The method, then:
(§1) Different 2,4-(substituted aromatic)-1,3-oxazoline compounds were tested for insecticidal activity on Spodoptera exigua (beet armyworm) and Myzus persicae (green peach aphid).
The different 2,4-(substituted aromatic)-1,3-oxazoline compounds used on Spodoptera exigua were formulated as test solutions. To prepare the test solutions, the different 2,4-(substituted aromatic)-1,3-oxazoline compounds were formulated at 400 PPM in 7.5 mL of 2:1 acetone:tap water solvent. 250 μL of each test solution was pipetted upon the surface of 8 mL of lepidopteran diet (modified Shorey) contained in each of five one-ounce plastic cups (one cup=1 replication). A second-instar beet armyworm was placed upon the treated diet in each cup once the solvent had air-dried. The cups containing the treated lepidopteran diet and the beet armyworms were capped and then held in a growth chamber at 25° C., 50-55% RH, and 14 hours light:10 hours dark for 5 days. The average % mortality was determined from the number of dead insects of five per treatments.

The test system of assay [2] is Myzus persicae (green peach aphid). Briefly: Insecticidal activity on green peach aphid, spray on infested cabbage leaves. As to conditions: 72 h, Rate 50 PPM spray on infested cabbage leaves until runoff, graded after 3 days at 26° C., count compared with untreated check. The assay is classed as in vivo. Here is the method:
as §1
The different 2,4-(substituted aromatic)-1,3-oxazoline compounds used on Myzus persicae were formulated as test spray solutions. To prepare the test spray solutions, 1 mg of each of the different 2,4-(substituted aromatic)-1,3-oxazoline compounds was dissolved into 1 mL of a 90:10 acetone:ethanol solvent. The resulting solution was added to 19 mL of water containing 0.05% Tween surfactant to produce different 50 PPM spray solutions. Cabbage leaves were […] with green peach aphid (all life stages) 16-20 hours prior to application of the different spray solutions. The different spray solutions were sprayed on both sides of each infested cabbage leaf with a sweeping action until runoff. The cabbage leaves were allowed to dry and were held for 3 days in a controlled room at 26° C. and 40% RH, after which time the test was graded. Grading was by actual count using a dissecting microscope and comparison of test counts to an untreated check. The average % mortality was then determined. In Table 1, “NT” means insecticidal activity was not tested for the 2,4-(substituted aromatic)-1,3-oxazoline compound at this rate.

For the molecule `C[C@@H]1OC(c2c(F)cccc2F)=N[C@@H]1c1ccc(-c2ccc(C(F)(F)F)cc2)cc1` (stereo in doubt) [(III)], the mortality (as a rule, the percentage killed) at 400 ppm in assay [1] was 100%. The same molecule registered a mortality at 50 ppm in assay [2] of 32%.

For the molecule `Cc1ccc(-c2ccc([C@@H]3N=C(c4c(F)cccc4F)O[C@H]3C)cc2)cc1C` (stereo in doubt) [(IX)], the mortality at 400 ppm in assay [1] stood at 60%. The molecule also registered a mortality at 50 ppm in assay [2] of 0%.

In assay [1], `Cc1ccccc1C1=N[C@@H](c2ccc(-c3ccc(C(F)(F)F)cc3)cc2)[C@@H](C)O1` (stereo in doubt) [(X)] showed a mortality at 400 ppm of 100%. For the same molecule, the mortality at 50 ppm in assay [2] turned out to be 88%.

In assay [1], `Cc1ccccc1C1=N[C@@H](c2ccc(-c3ccc(OC(F)(F)F)cc3)cc2)[C@@H](C)O1` (stereo in doubt) [(XI)] gave a mortality at 400 ppm of 100%. The same molecule came in with a mortality at 50 ppm in assay [2] of 71%.

Take `C[C@@H]1OC(c2c(F)cccc2Cl)=N[C@@H]1c1ccc(-c2ccc(OC(F)(F)F)cc2)cc1` (stereo in doubt) [(XII)]: the mortality at 400 ppm in assay [1] came to 100%. This molecule gave a mortality at 50 ppm in assay [2] of 86%.

The molecule `CCOc1ccc(-c2ccc([C@H]3N=C(c4c(F)cccc4Cl)O[C@H]3C)cc2)cc1` (stereo in doubt) [(XIII)] gave a mortality at 400 ppm in assay [1] of 100%. Besides, the mortality at 50 ppm in assay [2] turned out to be 82%.

For the molecule `C[C@H]1OC(c2c(F)cccc2F)=N[C@H]1c1ccc(-c2ccc(OC(F)(F)F)cc2)cc1` (stereo in doubt) [(XVI)], in assay [1], the mortality at 400 ppm was found to be 100%. The same molecule displayed a mortality at 50 ppm in assay [2] of 95%.

As to `FC(F)(F)c1ccc(-c2ccc(C3COC(c4c(Cl)cncc4Cl)=N3)cc2)c(Cl)c1` (centres unmarked) [(I)], the mortality at 400 ppm in assay [1] was 100%. Also, the mortality at 50 ppm in assay [2] is 18%.

In the case of `Fc1cncc(F)c1C1=NC(c2ccc(-c3ccc(C(F)(F)F)cc3)cc2)CO1` (centres unmarked) [(II)], the mortality at 400 ppm in assay [1] is 80%.

In assay [1], `Clc1cncc(Cl)c1C1=NC(c2ccc(-c3ccccc3)cc2)CO1` (centres unmarked) [(IV)] displayed a mortality at 400 ppm of 80%.

Turning to `Fc1ccc(C(F)(F)F)cc1-c1ccc(C2COC(c3c(Cl)cncc3Cl)=N2)cc1` (centres unmarked) [(V)], in assay [1], the mortality at 400 ppm came out at 60%.

Regarding `Cc1cc(-c2ccc(C(F)(F)F)cc2)ccc1C1COC(c2c(Cl)cncc2Cl)=N1` (centres unmarked) [(VI)], in assay [1], the mortality at 400 ppm came out at 100%. In addition, in assay [2], the mortality at 50 ppm is 20%.

Molecule `CCOc1ccc(-c2ccc(C3COC(c4c(Cl)cncc4Cl)=N3)c(C)c2)cc1` (centres unmarked) [(VII)] showed a mortality at 400 ppm in assay [1] of 100%. In assay [2], this molecule registered a mortality at 50 ppm of 82%.

For the molecule `Cc1cc(-c2ccc(OC(F)(F)F)cc2)ccc1C1COC(c2c(F)cccc2Cl)=N1` (centres unmarked) [(VIII)], the mortality at 400 ppm in assay [1] was 100%. In assay [2], the mortality at 50 ppm came to 66%.

Consider `CCOc1ccc(-c2ccc(C3N=C(c4c(F)cccc4F)OC3(C)C)cc2)cc1` (centres unmarked) [(XIV)], for which the mortality at 400 ppm in assay [1] came out at 60%. In assay [2], the mortality at 50 ppm was determined as 40%.

On to `FC(F)(F)c1ccc(-c2ccc(C3COC(c4c(Cl)cncc4Cl)=N3)cc2)cc1` (centres unmarked) [(XV)], for which the mortality at 400 ppm in assay [1] amounted to 100%. The molecule also displayed a mortality at 50 ppm in assay [2] of 75%.
